The numbers were not newly measured in US20140227371A1, “EDIBLE COMPOSITION” (priority 2011, published 2014), which cites them from elsewhere.

Each structure is given as a SMILES string.

The subject of one data set is rat liver. The conditions noted are these: through activation of the β-oxidation system, Tsuduki et al. 2009.
The conditions of data set [1]: alcohol-induced steatosis and steatohepatitis models; Kang et al. 2005.

With `OC[C@H]1NC[C@H](O)[C@@H](O)[C@@H]1O` [1-Deoxynojirimycin], the Lipid accumulation result in the data set on rat liver is given as “suppress lipid accumulation”.

In the case of `[Zn]` [Zinc], the Hepatoprotective effects result in data set [1] is on record as “hepatoprotective effects”.
